Laboratory results published in patent publication US20210139943A1, “MEDIUM AND PROCESS FOR THE CULTURE AND SELECTIVE ISOLATION OF THE BACTERIUM ENTEROCOCCUS HIRAE” (FONDATION MEDITERRANEE INFECTION, priority 2017, published 2021).

How the values were obtained:
E. faecium [1] = experiment: Determination of sugar: colour change on medium with indicator dye; type: cell-based, Enterococcus faecium; conditions: sugar in medium with bromocresol purple indicator dye
Text: (§1) To detect the consumption of sugar by bacteria, the inventors added to the medium of the present invention an indicator dye whose colour will vary according to the pH of the medium. Indeed, when the bacteria consume sugar, there is an acidification of the medium, which leads to a change in the indicator dye. To determine the most appropriate indicator dyer, the inventors tested several, including the following three: phenol red, bromocresol green and bromocresol purple. Based on concentrations in media already containing one of these indicator dyes, the inventors first chose to test a concentration of 25 mg/L [12] for each of the chosen indicators.
(§2) Once the indicator dye was chosen, the inventors were able to determine which sugar was most suitable for the present invention.
This sugar cannot therefore be used to isolate E. hirae.
(§3) Finally, the last sugar tested was mannitol. […] The inventors therefore chose mannitol as sugar for the formulation of said invention, at a concentration of 10 g/L, a concentration frequently found in culture media.

E. hirae [2] = experiment: as above; type: cell-based, Enterococcus hirae; conditions: sugar in medium with bromocresol purple indicator dye
Text: as §1, §2, §3

E. faecalis [3] = experiment: as above; type: cell-based, Enterococcus faecalis; conditions: sugar in medium with bromocresol purple indicator dye
Text: as §1, §2, §3

Enterococcus faecium = system: Enterococcus faecium; parameters: key: Variable refers to the fact that consumption of this sugar by E. faecium is strain dependent; conditions: Table 1, literature data; cited from earlier work
[4] = Dilution of nalidixic acid in water; type: physicochemical
Method: In addition, the concentration of nalidixic acid was reduced from 250 mg/L to no more than 100 mg/L due to its poor dilution in water above 100 mg/L and colistin, a polypeptide antibiotic of the polymyxin family with action on Gram-negative bacteria, was added at a concentration of 25 mg/L to compensate.

E. hirae [5] = experiment: Growth on media with different salt concentrations; type: cell-based, Enterococcus hirae
Method: (§4) Since enterococci are resistant to high salt concentrations, in order to eliminate some Gram-positive bacteria other than enterococci and Gram-negative bacteria resistant to the inhibitors mentioned above, different concentrations of salt (sodium chloride) were tested to find the most appropriate one to add to the formulation of the present invention. Four concentrations were tested (60 g/L, 65 g/L, 70 g/L and 75 g/L).

E. faecalis [6] = experiment: Growth on media with different salt concentrations; type: cell-based, Enterococcus faecalis; conditions: 60 g/L, 65 g/L, 70 g/L and 75 g/L salt
Method: as §4

E. faecium [7] = experiment: Growth on media with different salt concentrations; type: cell-based, Enterococcus faecium; conditions: 60 g/L, 65 g/L, 70 g/L and 75 g/L salt
Method: as §4

OC[C@@H](O)[C@@H](O)[C@H](O)[C@H](O)CO [Mannitol, mannitol]
Colour change of E. faecium colonies (E. faecium [1]): change in the colour of the medium and the colonies | Colour change of E. hirae colonies (E. hirae [2]): remained colourless | Colour change of E. faecalis colonies (E. faecalis [3]): change in the colour of the medium and the colonies

OC[C@H]1O[C@H](OCC2O[C@@H](O)[C@H](O)[C@@H](O)[C@@H]2O)[C@H](O)[C@@H](O)[C@H]1O (stereo partly drawn) [Melibiose, melibiose]
Sugar consumption by Enterococcus faecium (Enterococcus faecium): V | Colour change of E. faecium colonies (E. faecium [1]): variable results

OC[C@H]1O[C@H](OC[C@H]2O[C@H](O[C@]3(CO)O[C@H](CO)[C@@H](O)[C@@H]3O)[C@H](O)[C@@H](O)[C@@H]2O)[C@H](O)[C@@H](O)[C@H]1O [Raffinose, raffinose]
Colour change of E. faecium colonies (E. faecium [1]): no colour change | Colour change of E. faecalis colonies (E. faecalis [3]): no colour change

CCn1cc(C(=O)O)c(=O)c2ccc(C)nc21 [nalidixic acid]
Dilution in water (poor above this concentration) [4]: no more than 100 mg/L

[Cl-].[Na+] [sodium chloride]
Growth of E. hirae (E. hirae [5]; 60 g/L, 65 g/L, 70 g/L and 75 g/L salt): had growth for each of the concentrations tested | Size of E. hirae colonies (E. hirae [5]; reading the agars at 24 hours, 60 to 75 g/L salt): the higher the salt concentrations, the smaller the colonies | Growth of E. faecalis (E. faecalis [6]): had growth for each of the concentrations tested | Growth of E. faecium (E. faecium [7]): had growth for each of the concentrations tested
